Tests used:
[1] = Cytotoxicity against human HepG2.2.15 cells assessed as reduction in cell viability incubated for 6 days by CCK-8 assay; type: toxicity, cell-based, HepG2 2.2.15; settings: for CC50 at 144 h: time 6 day
[2] = system: Hepatitis B virus; assay: Antiviral activity against HBV infected in human HepG2.2.15 cells assessed as reduction in HBeAg level in cellular supernatant by luminescence based microplate reader analysis; type: functional, organism-based
[3] = system: Hepatitis B virus; assay: Antiviral activity against HBV infected in human HepG2.2.15 cells assessed as reduction in HBsAg level in cellular supernatant by luminescence based microplate reader analysis; type: functional, organism-based
[4] = system: Hepatitis B virus; assay: Antiviral activity against HBV infected in human HepG2.2.15 cells assessed as reduction in intracellular core HBV DNA level incubated for 6 days by qPCR analysis; type: functional, organism-based; settings: HepG2.2.15, 144 h
[5] = Cmax in BALB/c mouse at 10 mg/kg, po measured up to 24 hrs by HPLC analysis; type: ADME, organism-based; parameters: dose 10 mg/kg, time < 24 hrs, route po; settings: in vivo
[6] = MRT (0 to t) in BALB/c mouse at 10 mg/kg, po measured up to 24 hrs by HPLC analysis; type: ADME, organism-based; settings: in vivo
[7] = Tmax in BALB/c mouse at 10 mg/kg, po measured up to 24 hrs by HPLC analysis; type: ADME, organism-based; settings: in vivo
[8] = Elimination half life in BALB/c mouse at 10 mg/kg, po measured up to 24 hrs by HPLC analysis; type: ADME, organism-based; settings: in vivo, read-out: beta t1/2 (converted)
[9] = AUC (0 to t) in BALB/c mouse at 10 mg/kg, po measured up to 24 hrs by HPLC analysis; type: ADME, organism-based; parameters: dose 10 mg/kg, time < 24 hrs, route po; settings: in vivo
[10] = Neurotoxicity against NGF induced rat PC-12 cells assessed as morphological changes by measuring appearance of round cells with disappearance of neurites at 10 uM incubated for 48 hrs by phase contrast microscopic analysis; type: toxicity, cell-based; settings: pc-12, 48 h
[11] = Neurotoxicity against NGF induced rat PC-12 cells assessed as morphological changes by measuring appearance of shrunken cells with disappearance of neurites at 10 uM incubated for 48 hrs by phase contrast microscopic analysis; type: toxicity, cell-based; settings: pc-12, 48 h
[12] = Neurotoxicity against NGF induced rat PC-12 cells assessed as morphological changes by measuring appearance of shrunken cells at 10 uM incubated for 48 hrs by phase contrast microscopic analysis; type: toxicity, cell-based; settings: pc-12, 48 h
[13] = Neurotoxicity against NGF induced rat PC-12 cells assessed as morphological changes by measuring appearance of clear neurites at 10 uM incubated for 48 hrs by phase contrast microscopic analysis; type: toxicity, cell-based; settings: pc-12, 48 h

IC50 [2] [nM]	IC50 [3] [nM]	IC50 [4] [nM]	EC50 [2] [nM]	EC50 [3] [nM]	EC50 [4] [nM]	Compound	CC50 at 144 h [1] [nM]	further results
18.2	4.6	16.5	–	–	–	COc1cc2c(cc1OCC1COc3ccc([N+](=O)[O-])cc3O1)CC(C(C)C)n1cc(C(=O)O)c(=O)cc1-2 (stereo not drawn)	50000	–
> 1000	1.7	8.1	–	–	–	COc1ccc2c(c1)OC(COc1cc3c(cc1OC)-c1cc(=O)c(C(=O)O)cn1C(C(C)C)C3)CO2 (stereo not drawn)	31900	–
57.3	1.6	37.2	–	–	–	COc1cc2c(cc1OCC1COc3cccc(F)c3O1)CC(C(C)C)n1cc(C(=O)O)c(=O)cc1-2 (stereo not drawn)	21500	–
> 1000	34.3	36.9	–	–	–	COc1cc2c(cc1OCC1COc3cc(Br)ccc3O1)CC(C(C)C)n1cc(C(=O)O)c(=O)cc1-2 (stereo not drawn)	34700	–
15.4	0.2	5.7	–	–	–	COc1cc2c(cc1OCC1COc3ccc(F)cc3O1)CC(C(C)C)n1cc(C(=O)O)c(=O)cc1-2 (stereo not drawn)	34700	Cmax [5]: 1440 nM; MRT last at 24 h [6]: 112 min; Tmax [7]: 60 min; half-life [8]: 101 min; AUC(0-t) at 24 h [9]: 3.38 µM·h
53.2	3.4	4.3	–	–	–	COc1cc2c(cc1OCC1COc3cccc(Cl)c3O1)CC(C(C)C)n1cc(C(=O)O)c(=O)cc1-2 (stereo not drawn)	11600	–
39.5	3.7	9.1	–	–	–	COc1cc2c(cc1OCC1COc3cc(Cl)ccc3O1)CC(C(C)C)n1cc(C(=O)O)c(=O)cc1-2 (stereo not drawn)	10600	–
179	3.5	10.1	–	–	–	COc1cc2c(cc1OCC1COc3cc(C)ccc3O1)CC(C(C)C)n1cc(C(=O)O)c(=O)cc1-2 (stereo not drawn)	11600	–
22.7	18.4	15.5	–	–	–	COc1cc2c(cc1OCC1COc3cc(F)ccc3O1)CC(C(C)C)n1cc(C(=O)O)c(=O)cc1-2 (stereo not drawn)	11600	–
328	7.5	17.9	–	–	–	COc1cc2c(cc1OCC1COc3ccc(C)cc3O1)CC(C(C)C)n1cc(C(=O)O)c(=O)cc1-2 (stereo not drawn)	34700	–
2	1.5	12.1	–	–	–	COc1cc2c(cc1OCC1COc3ccccc3O1)CC(C(C)C)n1cc(C(=O)O)c(=O)cc1-2 (stereo not drawn)	–	IC50 at 6 days [1]: 21500 nM
21	1.2	4.2	–	–	–	COc1cc2c(cc1OCC1COc3c(Cl)cccc3O1)CC(C(C)C)n1cc(C(=O)O)c(=O)cc1-2 (stereo not drawn)	11600	–
86.5	7.7	5.7	–	–	–	COc1cc2c(cc1OCC1COc3ccc(Cl)cc3O1)CC(C(C)C)n1cc(C(=O)O)c(=O)cc1-2 (stereo not drawn)	11600	–
> 1000	403	52	–	–	–	COc1ccc2c(c1)OCC(COc1cc3c(cc1OC)-c1cc(=O)c(C(=O)O)cn1C(C(C)C)C3)O2 (stereo not drawn)	> 50000	–
127	24.5	13.4	–	–	–	COc1cc2c(cc1OCC1COc3ccc(Br)cc3O1)CC(C(C)C)n1cc(C(=O)O)c(=O)cc1-2 (stereo not drawn)	11600	–

More lines, now with the values behind:

Compound	IC50 [2] [nM]	IC50 [3] [nM]	IC50 [4] [nM]	EC50 [2] [nM]	EC50 [3] [nM]	EC50 [4] [nM]	CC50 at 144 h [1] [nM]	further results
COc1cc2c(cc1OCc1ccc3c(c1)OCCO3)CC(C(C)C)n1cc(C(=O)O)c(=O)cc1-2 (stereo not drawn)	10.2	0.2	13.4	–	–	–	34700	–
COc1cc2c(cc1OCC1COc3cccnc3O1)CC(C(C)C)n1cc(C(=O)O)c(=O)cc1-2 (stereo not drawn)	94.9	1.9	0.5	–	–	–	> 50000	Cmax [5]: 2910 nM; MRT last at 24 h [6]: 52.8 min; Tmax [7]: 30 min; half-life [8]: 43.2 min; AUC(0-t) at 24 h [9]: 2.38 µM·h
COc1cc2c(cc1OC[C@@H]1COc3cccnc3O1)C[C@H](C(C)C)n1cc(C(=O)O)c(=O)cc1-2	–	–	–	3190	882	882	–	–
COc1cc2c(cc1OCC1COc3c(F)cccc3O1)CC(C(C)C)n1cc(C(=O)O)c(=O)cc1-2 (stereo not drawn)	20.6	1.5	29	–	–	–	16700	–
COc1cc2c(cc1OCc1ccc3c(c1)OCO3)C[C@@H](C(C)C)n1cc(C(=O)O)c(=O)cc1-2	–	–	–	191	0.8	1.9	–	Activity [10]: Toxic; Activity [11]: Toxic
COc1cc2c(cc1OC[C@H]1CCCO1)C[C@@H](C(C)C)n1cc(C(=O)O)c(=O)cc1-2	–	–	–	220	5.1	2.1	–	Activity [12]: Toxic
COc1cc2c(cc1OC[C@@H]1CCCO1)C[C@H](C(C)C)n1cc(C(=O)O)c(=O)cc1-2	–	–	–	2010	1.2	119	–	–
COc1cc2c(cc1OCCC1COc3ccccc3O1)CC(C(C)C)n1cc(C(=O)O)c(=O)cc1-2 (stereo not drawn)	16.4	18.4	1.2	–	–	–	11600	–
COc1cc2c(cc1OC[C@H]1COc3cccnc3O1)C[C@@H](C(C)C)n1cc(C(=O)O)c(=O)cc1-2	–	–	–	104	1.4	1.4	–	Activity [12]: Toxic
COc1cc2c(cc1OC[C@H]1COc3cccnc3O1)C[C@H](C(C)C)n1cc(C(=O)O)c(=O)cc1-2	–	–	–	12800	3080	3080	–	–
COc1cc2c(cc1OCc1ccc3c(c1)OCO3)C[C@H](C(C)C)n1cc(C(=O)O)c(=O)cc1-2	–	–	–	2030	239	124	–	–
COCCCOc1cc2c(cc1OC)-c1cc(=O)c(C(=O)O)cn1C(C(C)C)C2 (racemic)	91.2	5.1	86.3	18.2	1	1	> 50000	Cmax [5]: 11600 nM; MRT last at 24 h [6]: 67.8 min; Activity [10]: Toxic; Tmax [7]: 11.4 min; half-life [8]: 51 min; AUC(0-t) at 24 h [9]: 17.2 µM·h; Activity [11]: Toxic
COc1cc2c(cc1OCC1CCOC1)CC(C(C)C)n1cc(C(=O)O)c(=O)cc1-2 (stereo not drawn)	56.2	1.1	0.6	–	–	–	> 50000	–
COc1cc2c(cc1OC[C@@H]1COc3cccnc3O1)C[C@@H](C(C)C)n1cc(C(=O)O)c(=O)cc1-2	–	–	–	70	6.3	86.3	–	Activity [12]: Toxic
COc1cc2c(cc1OC[C@@H]1CCCO1)C[C@@H](C(C)C)n1cc(C(=O)O)c(=O)cc1-2	–	–	–	4.6	1.6	0.6	–	Activity [13]: Non-Toxic
COc1cc2c(cc1OC(C)c1ccc3c(c1)OCO3)CC(C(C)C)n1cc(C(=O)O)c(=O)cc1-2 (stereo not drawn)	> 1000	1.2	181	–	–	–	> 50000	–
COc1cc2c(cc1OCc1ccc3c(c1)OCO3)CC(C(C)C)n1cc(C(=O)O)c(=O)cc1-2 (stereo not drawn)	66.7	1.6	5	–	–	–	> 50000	Cmax [5]: 2180 nM; MRT last at 24 h [6]: 101 min; Tmax [7]: 49.8 min; half-life [8]: 82.2 min; AUC(0-t) at 24 h [9]: 4.46 µM·h
COc1cc2c(cc1OCC1COCCO1)CC(C(C)C)n1cc(C(=O)O)c(=O)cc1-2 (stereo not drawn)	> 1000	5.1	18.2	–	–	–	> 50000	–
COc1ccc(COc2cc3c(cc2OC)-c2cc(=O)c(C(=O)O)cn2C(C(C)C)C3)cc1OC (stereo not drawn)	158	1.1	11.2	–	–	–	> 50000	–
COc1cc2c(cc1OCC1CCCO1)CC(C(C)C)n1cc(C(=O)O)c(=O)cc1-2 (stereo not drawn)	27	509	1.6	–	–	–	> 50000	Cmax [5]: 8840 nM; MRT last at 24 h [6]: 65.4 min; Tmax [7]: 19.8 min; half-life [8]: 39.6 min; AUC(0-t) at 24 h [9]: 10.4 µM·h
COCCCOc1cc2c(cc1OC)-c1cc(=O)c(C(=O)O)cn1[C@@H](C(C)C)C2	–	–	–	3270	928	75.8	–	–
COc1cc2c(cc1OC[C@H]1CCCO1)C[C@H](C(C)C)n1cc(C(=O)O)c(=O)cc1-2	–	–	–	3380	3.5	37.5	–	–

Source: ChEMBL document CHEMBL5137052, “Identification of dihydroquinolizinone derivatives with cyclic ether moieties as new anti-HBV agents” (Eur J Med Chem, 2022)
